According to US8785399B2, “Antibacterial peptides” (Spiderbiotech S.R.A., priority 2008, dated 2014):
≈ marks a conversion by molar mass, not a printed value. Positions of bridges follow the written chain, without caps; N, C: chain ends. Non-standard residues stand in square brackets, D forms with d. Residues, ends and D or L forms follow the SMILES beside them. Chains are numbered I, II in the order given. Aoc = NCCCCCCCC(=O)O; βAla = NCCC(=O)O

Columns and labels:
E. coli ATCC 25922 = experiment: MIC by broth microdilution, E. coli reference strain; assay type: cell-based, Escherichia coli
Experimental: (§1) Determination of MIC. MICs were determined in MHB by the broth microdilution methodology, according to CLSI procedure (formerly NCCLS, Ref. 11) by using final bacterial inocula of 1-5×10^5 CFU/mL. Assays were performed in sterile 96-well microtiter plates with round bottom wells (Corning Costar). Plates were incubated at 37° C. and read after 20-24 h. MIC was defined as the lowest drug concentration causing complete suppression of visible bacterial growth. All compounds were dissolved in (5% v/v DMSO).
All natural aminoacids have been divided into three groups based on their chemical-physical properties. A total amount of 27 minilibraries, each one containing six peptide in equimolar amounts, were obtained and assayed against E. coli ATCC 25922 as reference strain. MIC (Minimum Inhibitory Concentration) is defined as the lowest concentration inhibiting 100% of visible growth.

[1] = test system: Pseudomonas aeruginosa ATCC 27853; experiment: MIC by broth microdilution, P. aeruginosa reference strain; assay type: cell-based
Experimental: as §1
(§2) These peptides were synthesized individually, in order to assay the activity of each sequence.

[2] = test system: Klebsiella pneumoniae ATCC 10031; experiment: MIC by broth microdilution, K. pneumoniae reference strain; assay type: cell-based
Experimental: as §1, §2

Acinetobacter baumannii = assay type: cell-based
Experimental: as §1
(§3) These compounds were tested against a large panel of Gram-negative clinical isolates and the relative MIC values were reported in Table 5 (parts 1-3)

Acinetobacter iwoffi = assay type: cell-based
Experimental: as §1, §3

Enterobacter cloacae = assay type: cell-based
Experimental: as §1, §3

Escherichia coli = assay type: cell-based
Experimental: as §1, §3

Klebsiella oxytoca = assay type: cell-based
Experimental: as §1, §3

Klebsiella pneumoniae = assay type: cell-based
Experimental: as §1, §3

Proteus mirabilis = assay type: cell-based
Experimental: as §1, §3

Pseudomonas aeruginosa = assay type: cell-based
Experimental: as §1, §3

Serratia marcescens = assay type: cell-based
Experimental: as §1, §3

[3] = test system: Stenotrophomonas maltophilia; assay type: cell-based
Experimental: as §1, §3

Shigella = experiment: MIC vs clinical isolates, Shigella; assay type: cell-based; settings: Shigella strain ND024108
Experimental: as §1, §3

E. coli EC47 = assay type: cell-based, Escherichia coli
Experimental: Test and reference compounds, ID24 and colistin sodium methanesufonate (CMS) respectively, were dissolved in 0.1 M phosphate-buffered saline pH 6.9, at the required drug concentrations. Solutions were made just before administration, and stored at 4° C. until the end of scheduled treatments, ID24 MIC value on E. coli EC47 strain is 2 ug/mL [MIC was determined by the broth microdilution method in Muller Hinton medium (NCCLS guidelines), using bacterial inoculum of approximately 10^5 CFU/mL].

[4] = In vitro cytotoxicity, MTT dye reduction assay, HeLa; assay type: cell-based; settings: human, HeLa cells (human epithelial carcinoma)
Experimental: (§4) HeLa (Human epithelial carcinoma cell line), HepG2 (Human hepatocellular liver carcinoma cell line) and HaCat (human keratinocyte) were grown to confluence and then plated at 20,000, 12,500 and 30,000 cells per well (the optimal cell count for each cell line has been previously determined). After 24 hours, ID24 in DMEM without FBS was added at concentration ranging from 800 and 100 ug/ml. As positive controls 100 uL of cells washed with medium without serum that represent 100% viability and, as negative, 100 uL medium without serum were also added. After 24 hours of incubation at 37° C. in a 5% v/v CO2 atmosphere, 10 ul MTT Reagent [3-(4,5-dimethylthiazol-2-yl)-2,5-diphenyl […] bromide, final concentration 0.5 mg/mL) was added to each well and incubated for 2 to 4 hours. Solubilization of formazan, formed by metabolic reduction of MTT, was obtained using the stop mix solution (10% w/v sodium dodecyl sulphate, 45% v/v dimethyl formamide, adjusted to pH 4.5 with glacial acetic acid). The plates were read in a microplate spectrophotometer. (Biorad, Benchmark plus). Cultures exposed to ID24 or exposed to the medium alone were measured spectrophotometrically at dual wave-length (565-650 nm). The experiment was carried out in three replicates.

[5] = In vitro cytotoxicity, MTT dye reduction assay, HepG2; assay type: cell-based; settings: human, HepG2 cells (human hepatocellular liver carcinoma)
Experimental: as §4

[6] = In vitro cytotoxicity, MTT dye reduction assay, HaCat; assay type: cell-based; settings: human, HaCat cells (human keratinocytes)
Experimental: as §4

[7] = test system: P. aeruginosa ATCC 27853 24-hours biofilm; assay type: cell-based, Pseudomonas aeruginosa; settings: ATCC 27853, 4 h
Experimental: An exponential phase inoculum of Pseudomonas aeruginosa ATCC 27853 of approximately 1×10^7 CFU/mL was poured into a reagent reservoir of Innovotech plates for MBEC™ High-throughput assay (Innovotech Inc., Edmonton, Canada). 22 mL of inoculum were added to the trough and the peg lid was placed onto. The device was placed on the shaking incubator at 80 rpm in a humidified box at 37° C.
After 24 hours of incubation, the pegs were rinsed into a plate containing 200 uL of physiological solution to remove loosely adherent planktonic cells from the biofilm and then were put in a microplate containing 200 uL of different antibiotic solutions serially diluted in TSB.
Following 4 hours of contact and incubation at 37° C. on the shaking incubator, the peg lid was removed from the trough and submersed in a rinse plate for 2 minutes.
Then a new microtitre with saline solution containing the sample pegs was put in the tray of the ultrasonic cleaner and sonicated for 30 minutes to disrupt biofilm from the surface of the 96 pegs.
Duplicate 0.01 or 0.005 mL aliquots of ten fold serial dilution of each well, were spread on MHA plate and colonies were read for viable cell counting after 24 hours of incubation.

In vivo acute toxicity = experiment: In vivo acute toxicity; set-up: species or system CD1 mice; settings: for symptoms and behavioural alterations (Irwin Test): female CD1 mice
Experimental: 9-10 weeks female CD1 mice (Charles River Lab. Italia s.r.l. Via Indipendenza, 11-23885 Calco (LC), Italy), weighing on average 28.23 g on the day of experiment were used. Mice were housed for 3 days in a temperature and humidity controlled room before starting experiment, and were fed with standard laboratory chow and water ad libitum.
ID24 was dissolved and sonicated in 0.9% w/v NaCl sterile solution (Sigma-Aldrich) for human administration at the dose concentrations 20 and 40 mg/kg. Compound preparation was conducted just before administration.
Two doses of ID24 were administered with a single intraperitoneal injection to mice: 20 mg/kg and 40 mg/kg. Five animals were treated with each dose of antibiotic. Adverse symptoms were monitored daily for 7 days after injection.
Survivals and clinical/behavioural signs were recorded daily for 14 days.
Main behavioural parameters and clinical signs provided by Irwin Test (Ref. 13).

[8] = test system: Staphylococcus aureus ATCC 25923
Experimental: as §1, §2

whole blood = assay type: cell-based
Experimental: Whole blood was collected in a sterile tube with a 4% w/v sodium citrate solution (in a 1:10 ratio sodium citrate:whole blood) and conserved in ice. Serial dilutions of ID24 (1 mg/mL to 62.5 ug/mL) were added to whole blood in a ratio 1:1 or 1:10. The haemolytic potential was expressed relative to saponine, added in the same ratio, considered as 100% haemolysis. The negative control was whole blood in physiologic solution, which gave minimal lysis. 100 uL aliquots of each suspension were added in sterile 96-well microtiter plates (Nunc) in triplicate. The plates were incubated at 37° C. for 30 minutes.
Subsequently, the suspension were pelletted by centrifugation at 1000 g for 10 minutes at 4° C. One hundred microliters of supernatant from each well was transferred accordingly to a new 96-well microtiter plate, and the amount of haemoglobin released into the supernatant was determined by reading the absorbance at 560 nm.
In Table 8, haemolysis percentages of different amounts of ID24 in a 1:1 ratio with whole blood are listed, while in Table 9 haemolysis percentages of different amounts of ID24 in a 1:10 ratio with whole blood are reported. The amount of haemoglobin released into the supernatant was determined by reading the absorbance at 560 nm.

[9] = IP administration, up to the highest dose of 40 mg/kg

Row | Compound | MIC (ug/mL) E. coli (E. coli ATCC 25922; Table 4) [µg/mL] | MIC (ug/mL) P. aeruginosa ([1]; Table 4) [µg/mL] | MIC Range (Acinetobacter baumannii) [mg/L] | MIC (Acinetobacter iwoffi) [mg/L] | MIC Range (Enterobacter cloacae) [mg/L] | MIC Range (Escherichia coli) [mg/L] | MIC Range (Klebsiella oxytoca) [mg/L] | MIC Range (Klebsiella pneumoniae) [mg/L] | MIC (Proteus mirabilis) [mg/L] | MIC Range (Proteus mirabilis) [mg/L] | MIC Range (Pseudomonas aeruginosa) [mg/L] | MIC (Serratia marcescens) [mg/L] | MIC Range [3] [mg/L] | MIC (Shigella) [mg/L] | also measured
1 | CC[C@H](C)[C@H](NC(=O)[C@H](CCCCN)NC(=O)[C@H](CCCCN)NC(=O)[C@@H](N)Cc1c[nH]c2ccccc12)C(=O)N[C@@H](CCCNC(=N)N)C(=O)N[C@H](C(=O)N[C@@H](CCCNC(=N)N)C(=O)N[C@@H](CC(C)C)C(=O)N[C@@H](CO)C(=O)N[C@@H](C)C(=O)NCCCC[C@H](NC(=O)[C@H](C)NC(=O)[C@H](CO)NC(=O)[C@H](CC(C)C)NC(=O)[C@H](CCCNC(=N)N)NC(=O)[C@@H](NC(=O)[C@H](CCCNC(=N)N)NC(=O)[C@@H](NC(=O)[C@H](CCCCN)NC(=O)[C@H](CCCCN)NC(=O)[C@@H](N)Cc1c[nH]c2ccccc12)[C@@H](C)CC)C(C)C)C(=O)NCCC(N)=O)C(C)C [ID18, (H-W-KKIRVRLSA)2-Lys-β-Ala-NH2] (I: H-WKKIRVRLSAK[βAla]-NH2 / II: H-WKKIRVRLSA; amide I:11-II:C) | 4 (≈ 1.49 µM) | 32 (≈ 11.9 µM) | 8 to 16 | 16 (≈ 5.94 µM) | 4 to 32 | 2 to 32 | 32 (≈ 11.9 µM) | 4 to 16 | >128 | >128 | 8 to 16 | >128 | 8 to 32 | 4 (≈ 1.49 µM) | MIC (ug/mL) K. pneumoniae ([2]; Table 4): 32 µg/mL (≈ 11.9 µM); MIC (Klebsiella oxytoca): 32 mg/L (≈ 11.9 µM)
2 | CC[C@H](C)[C@H](NC(=O)[C@H](CCCCN)NC(=O)[C@H](CCCCN)NC(=O)[C@@H](N)Cc1c[nH]c2ccccc12)C(=O)N[C@@H](CCCNC(=N)N)C(=O)N[C@H](C(=O)N[C@@H](CCCNC(=N)N)C(=O)N[C@@H](CC(C)C)C(=O)N[C@@H](CO)C(=O)N[C@@H](C)C(=O)NCCCC[C@H](NC(=O)[C@H](C)NC(=O)[C@H](CO)NC(=O)[C@H](CC(C)C)NC(=O)[C@H](CCCNC(=N)N)NC(=O)[C@@H](NC(=O)[C@H](CCCNC(=N)N)NC(=O)[C@@H](NC(=O)[C@H](CCCCN)NC(=O)[C@H](CCCCN)NC(=O)[C@@H](N)Cc1c[nH]c2ccccc12)[C@@H](C)CC)C(C)C)C(=O)NCCCCCCCC(N)=O)C(C)C [ID24, (H-W-KKIRVRLSA)2-Lys-8-Aoa-NH2] (I: H-WKKIRVRLSAK[Aoc]-NH2 / II: H-WKKIRVRLSA; amide I:11-II:C) | 4 (≈ 1.45 µM) | 32 (≈ 11.6 µM) | 8 to 16 | 32 (≈ 11.6 µM) | 4 to 16 | 4 to 32 | 16 to 32 | 4 to 16 | >128 | >128 | 8 to 16 | >128 | 8 to 32 | 4 (≈ 1.45 µM) | MIC value on E. coli EC47 strain (E. coli EC47): 2 mg/L (≈ 0.724 µM); CC50 at 24 h [4]: 0.156 µM; CC50 at 24 h ([4]; HeLa, 24 hours incubation, MTT, read-out: CC50 ID24): 430 mg/L; CC50 at 24 h [5]: 0.078 µM; CC50 at 24 h ([5]; HepG2, 24 hours incubation, MTT, read-out: CC50 ID24): 215 mg/L; CC50 at 24 h [6]: 0.16 µM; CC50 at 24 h ([6]; HaCat, 24 hours incubation, MTT, read-out: CC50 ID24): 442 mg/L; percentage of inhibition of bacteria biofilm [7]: 88.7-99.9%; symptoms and behavioural alterations (Irwin Test) (In vivo acute toxicity; 20 mg/kg single intraperitoneal injection): no behavioural alterations; symptoms and behavioural alterations (Irwin Test) (In vivo acute toxicity; 40 mg/kg single intraperitoneal injection): no behavioural alterations; adverse symptoms (In vivo acute toxicity; [9]): No adverse symptoms; deaths (In vivo acute toxicity; [9]): no deaths
3 | H-YKKIRVRLSA-OH [ID7, H-Y-KKIRVRLSA-OH] |  |  |  |  |  |  |  |  |  |  |  |  |  |  | MIC (ug/mL) E. coli (E. coli ATCC 25922; ATCC 25922): 256 µg/mL; MIC (ug/mL) P. aeruginosa ([1]; ATCC 27853): 256 µg/mL; MIC (ug/mL) K. pneumoniae ([2]; ATCC 10031): >512 µg/mL; MIC (ug/mL) S. aureus [8]: >512 µg/mL
4 | saponine |  |  |  |  |  |  |  |  |  |  |  |  |  |  | Haemolysis % (whole blood): 100%; Haemolysis, % (whole blood): 100%
